# Reference: patent US12247029B2, “Heterocyclic compounds as class II phosphoinositide 3-kinase inhibitors” (Forschungsverbund Berlin e.V., priority 2018, dated 2025)
# Molecular target: PI3KC2α Δ1-298 (Homo sapiens (Human), UniProt O00443)
# Experiment: ADP-Glo kinase assay with purified PI3KC2α Δ1-298
# Type: biochemical
# Conditions: not given
# Procedure: Previous studies have shown that PI3KC2α can utilize phosphatidylinositol (PI) or phosphatidylinositol 4-phosphate [PI(4)P] to produce PI(3)P or PI(3,4)P2 respectively but with a preference for PI(3,4)P2 production. To verify that purified PI3KC2α Δ1-298 is active, a radioactive kinase assay was performed with PI as a substrate and different amounts of purified PI3KC2α Δ1-298. The lipid product [PI(3)P] was separated on TLC plates, and the PI(3)P signal was correlated with the amount of PI3KC2α used (FIG. 4A). […] After having confirmed the activity of purified PI3KC2α Δ1-298, an assay suitable for high content screens in multiwell format (ADP-Glo™ assay) was established. The ADP-Glo™ assay has been used for universal detection of ATP hydrolysis. This assay measures ATP hydrolysis occurring during a kinase reaction. For detection, generated ADP is re-converted into ATP with the […] and converted into light by the Ultra-Glo™ Luciferase reagent. The luminescent signal reports kinase activity (FIG. 4B).
# The ADP-Glo™ assay was first used to determine the linear correlation range of signal with different amounts of kinase, and then to assess the Kms for ATP and for PI. […] Further optimization of this assay allowed us to carry out medium-to-high throughput screening using low amounts of purified enzyme (at fixed concentrations of: ATP=40 μM, PI=200 μM, PI3KC2α A1−298=10 ng/μl).
# Primary screens were performed using the ADP-Glo™ assay in a 384-well format. 37, 224 small molecules were screened for their ability to inhibit kinase activity of PI3KC2α Δ1-298. The concentration of each compound used in the primary screens was 10 μM. Kinase incubations with ATP but without PI were used as negative control samples. This primary screen turned out to be robust with an average z′ factor of 0.57, and therefore judged as successful.
# ADP-Glo kinase assay was performed as described by the manufacturer's protocol. Briefly, the kinase assay was performed with a […] of liver PI/ATP/purified PI3KC2α for 20 min in kinase reaction buffer described above. To deplete the remaining ATP from the reaction, 5 μl of […] was added to the kinase reaction mixture and incubated for 40 min. For detection, the generated ADP is re-converted into ATP and converted into light by the Ultra-Glo™ luciferase in kinase detection reagent. The luminescent signal positively correlates with kinase activity. All reactions are performed in Corning® 384 well-white plates.
# PI3KC2α Δ1-298, sequence (O00443 299-1686): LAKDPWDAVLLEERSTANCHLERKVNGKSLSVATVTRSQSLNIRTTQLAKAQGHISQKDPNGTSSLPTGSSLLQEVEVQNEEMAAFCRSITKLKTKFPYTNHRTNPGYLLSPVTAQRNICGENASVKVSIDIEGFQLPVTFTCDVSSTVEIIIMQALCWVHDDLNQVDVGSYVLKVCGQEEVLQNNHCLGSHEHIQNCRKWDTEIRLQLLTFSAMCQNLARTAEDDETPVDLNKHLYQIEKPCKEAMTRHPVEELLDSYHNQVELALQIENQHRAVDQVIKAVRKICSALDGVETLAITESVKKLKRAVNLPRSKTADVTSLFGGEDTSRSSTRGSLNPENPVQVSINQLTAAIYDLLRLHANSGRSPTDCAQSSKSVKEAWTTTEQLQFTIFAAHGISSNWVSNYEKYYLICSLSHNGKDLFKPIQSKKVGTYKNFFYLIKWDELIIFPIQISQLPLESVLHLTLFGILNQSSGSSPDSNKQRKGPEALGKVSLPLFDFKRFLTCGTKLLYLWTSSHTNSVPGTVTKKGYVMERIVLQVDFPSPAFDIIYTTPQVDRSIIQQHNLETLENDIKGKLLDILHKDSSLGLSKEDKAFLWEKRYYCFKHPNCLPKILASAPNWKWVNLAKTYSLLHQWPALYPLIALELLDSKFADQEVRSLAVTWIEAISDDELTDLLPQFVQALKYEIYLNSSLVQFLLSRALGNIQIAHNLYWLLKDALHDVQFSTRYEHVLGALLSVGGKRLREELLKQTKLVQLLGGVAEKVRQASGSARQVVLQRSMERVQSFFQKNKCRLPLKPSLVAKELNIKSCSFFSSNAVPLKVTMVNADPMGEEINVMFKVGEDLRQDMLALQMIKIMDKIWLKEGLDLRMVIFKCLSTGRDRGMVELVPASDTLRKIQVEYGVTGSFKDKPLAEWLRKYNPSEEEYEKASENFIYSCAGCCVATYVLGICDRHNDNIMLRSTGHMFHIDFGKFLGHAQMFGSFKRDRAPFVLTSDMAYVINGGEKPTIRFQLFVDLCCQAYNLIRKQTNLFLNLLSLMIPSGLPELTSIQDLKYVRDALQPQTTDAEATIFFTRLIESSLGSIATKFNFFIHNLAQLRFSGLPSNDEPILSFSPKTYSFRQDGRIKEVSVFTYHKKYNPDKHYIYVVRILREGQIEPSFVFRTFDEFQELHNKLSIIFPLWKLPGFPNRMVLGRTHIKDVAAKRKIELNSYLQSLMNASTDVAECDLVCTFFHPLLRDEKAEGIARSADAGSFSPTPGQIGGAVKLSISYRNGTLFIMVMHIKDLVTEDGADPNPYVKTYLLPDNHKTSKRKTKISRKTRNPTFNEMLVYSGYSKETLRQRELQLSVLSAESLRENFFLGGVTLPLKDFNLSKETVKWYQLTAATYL
inhibition at 10 µM [%],"PI3KC2α inhibitory activity (in words, SAR)",SMILES
36,,"O=C(CCc1nc2nccnc2c(=O)n1CCc1ccccc1)NCCc1ccccc1 [Example Compound 102, 3-(4-Oxo-3-phenethyl-3,4-dihydropteridin-2-yl)-N-phenethylpropanamide]"
28,,"O=C(CCc1nc2nccnc2c(=O)n1CCc1ccccc1)NCc1ccccc1 [Example Compound 101, N-Benzyl-3-(4-oxo-3-phenethyl-3,4-dihydropteridin-2-yl)propanamide]"
,functional compounds,"O=C(CSc1nc2nccnc2c(=O)n1CCc1ccccc1)Nc1nc(-c2ccccc2)cs1 [Example Compound 10, 2-((4-Oxo-3-phenethyl-3,4-dihydropteridin-2-yl)thio)-N-(4-phenylthiazol-2-yl)acetamide]"

# Same assay, conditions: read-out: IC50 (PI3KC2α; ADP-Glo™ assay)
row,SMILES,IC50 [nM]
1,"O=c1c2nccnc2nc(SCc2nc3cc(Br)cnc3[nH]2)n1CCc1ccccc1 [Example Compound 74, 2-(((6-Bromo-3H-imidazo[4,5-b]pyridin-2-yl)methyl)thio)-3-phenethylpteridin-4(3H)-one]",910
2,"COC(=O)[C@H]1C[C@H](n2c(SCC(=O)Nc3nccs3)nc3nccnc3c2=O)C1 [Example Compound 91, trans-Methyl 3-(4-oxo-2-((2-oxo-2-(thiazol-2-ylamino)ethyl)thio)pteridin-3(4H)-yl)cyclobutane-1-carboxylate]",370
3,"O=c1c2nccnc2nc(SCc2nc3cc(Br)ccc3[nH]2)n1CCc1ccccc1 [Example Compound 72, 2-(((5-Bromo-1H-benzo[d]imidazol-2-yl)methyl)thio)-3-phenethylpteridin-4(3H)-one]",51000
4,"O=C(CSc1nc2nccnc2c(=O)n1C1CCc2ccccc21)Nc1nccs1 (centres unmarked) [Example Compound 19, 2-((3-(2,3-Dihydro-1H-inden-1-yl)-4-oxo-3,4-dihydropteridin-2-yl)thio)-N-(thiazol-2-yl)acetamide]",1600
5,"NC(=O)c1ccc(-n2c(SCC(=O)Nc3nccs3)nc3nccnc3c2=O)cc1 [Example Compound 41, 4-(4-Oxo-2-((2-oxo-2-(thiazol-2-ylamino)ethyl)thio)pteridin-3(4H)-yl)benzamide]",51
6,"O=c1c2nccnc2nc(SCc2nc3ccccc3s2)n1CCc1ccccc1 [Example Compound 62, 2-((Benzo[d]thiazol-2-ylmethyl)thio)-3-phenethylpteridin-4(3H)-one]",4000
7,"CC(C)(C)OC(=O)N1CCC(n2c(SCC(=O)Nc3nccs3)nc3nccnc3c2=O)CC1 [Example Compound 93, tert-Butyl 4-(4-oxo-2-((2-oxo-2-(thiazol-2-ylamino)ethyl)thio)pteridin-3(4H)-yl)piperidine-1-carboxylate]",3600
8,"O=C(CSc1nc2nccnc2c(=O)n1-c1ccccc1)Nc1nccs1 [Example Compound 40, 2-((4-Oxo-3-phenyl-3,4-dihydropteridin-2-yl)thio)-N-(thiazol-2-yl)acetamide]",6600
9,"O=c1[nH]c(CSc2nc3nccnc3c(=O)n2CCc2ccccc2)nc2ccccc12 [Example Compound 67, 2-(((4-Oxo-3,4-dihydroquinazolin-2-yl)methyl)thio)-3-phenethylpteridin-4(3H)-one]",1900
10,"CNC(=O)c1ccc(-n2c(SCC(=O)Nc3nccs3)nc3nccnc3c2=O)cc1 [Example Compound 81, 4 N-Methyl-4-(4-oxo-2-((2-oxo-2-(thiazol-2-ylamino)ethyl)thio)pteridin-3(4H)-yl)benzamide]",620
11,"O=C(CSc1nc2nccnc2c(=O)n1CC(F)(F)c1ccccc1)Nc1nccs1 [Example Compound 18, 2-((3-(2,2-Difluoro-2-phenylethyl)-4-oxo-3,4-dihydropteridin-2-yl)thio)-N-(thiazol-2-yl)acetamide]",2300
12,"O=c1c2nccnc2nc(SCc2nc3ccccc3[nH]2)n1[C@@H]1C[C@H]1c1ccccc1 (relative stereo) [Example Compound 99, trans-2-(((1H-Benzo[d]imidazol-2-yl)methyl)thio)-3-(2-phenylcyclopropyl)pteridin-4(3H)-one]",1800
13,"O=C(CSc1nc2nccnc2c(=O)n1CCc1cccs1)Nc1nccs1 [Example Compound 8, 2-((4-Oxo-3-(2-(thiophen-2-yl)ethyl)-3,4-dihydropteridin-2-yl)thio)-N-(thiazol-2-yl)acetamide]",1100
14,"O=c1c2nccnc2nc(SCc2nc3cc(Cl)ccc3[nH]2)n1CCc1ccccc1 [Example Compound 69, 2-(((5-Chloro-1H-benzo[d]imidazol-2-yl)methyl)thio)-3-phenethylpteridin-4(3H)-one]",27000
15,"CNC(=O)c1ccc(-n2c(SCc3nc4ccccc4[nH]3)nc3nccnc3c2=O)cc1 [Example Compound 82, 4-(2-(((1H-Benzo[d]imidazol-2-yl)methyl)thio)-4-oxopteridin-3(4H)-yl)-N-methylbenzamide]",610
16,"N#Cc1ccc(-n2c(SCC(=O)Nc3nccs3)nc3nccnc3c2=O)cc1 [Example Compound 85, 2-((3-(4-Cyanophenyl)-4-oxo-3,4-dihydropteridin-2-yl)-thio)-N-(thiazol-2-yl)acetamide]",1200

# Other lines, results leading:
row,IC50 [nM],SMILES
1,5800,"Cc1ccc(-c2csc(NC(=O)CSc3nc4nccnc4c(=O)n3CCc3ccccc3)n2)s1 [Example Compound 30, N-(4-(5-Methylthiophen-2-yl)thiazol-2-yl)-2-((4-oxo-3-phenethyl-3,4-dihydropteridin-2-yl)thio)acetamide]"
2,2400,"COc1cccc(-c2csc(NC(=O)CSc3nc4nccnc4c(=O)n3CCc3ccccc3)n2)c1 [Example Compound 31, N-(4-(3-Methoxyphenyl)thiazol-2-yl)-2-((4-oxo-3-phenethyl-3,4-dihydropteridin-2-yl)thio)acetamide]"
3,2100,"O=C(CSc1nc2nccnc2c(=O)n1CCc1cccc(F)c1)Nc1ncco1 [Example Compound 3, 2-((3-(3-Fluorophenethyl)-4-oxo-3,4-dihydropteridin-2-yl)thio)-N-(oxazol-2-yl)acetamide]"
4,1300,"CS(=O)(=O)c1ccc(-c2csc(NC(=O)CSc3nc4nccnc4c(=O)n3CCc3ccccc3)n2)cc1 [Example Compound 53, N-(4-(4-(Methylsulfonyl)phenyl)thiazol-2-yl)-2-((4-oxo-3-phenethyl-3,4-dihydropteridin-2-yl)thio)acetamide]"
5,1260,"O=C(CSc1nc2nccnc2c(=O)n1CCc1ccccc1)Nc1nc(-c2ccccc2)cs1 [Example Compound 10, 2-((4-Oxo-3-phenethyl-3,4-dihydropteridin-2-yl)thio)-N-(4-phenylthiazol-2-yl)acetamide]"
6,1700,"CS(=O)(=O)Nc1ccc(-c2csc(NC(=O)CSc3nc4nccnc4c(=O)n3CCc3ccccc3)n2)cc1 [Example Compound 2, N-(4-(4-(Methylsulfonamido)phenyl)thiazol-2-yl)-2-((4-oxo-3-phenethyl-3,4-dihydropteridin-2-yl)thio)acetamide]"
7,17200,"O=C(CSc1nc2nccnc2c(=O)n1CCc1ccccc1)Nc1cc(-c2ccccc2)cs1 [Example Compound 27, 2-((4-Oxo-3-phenethyl-3,4-dihydropteridin-2-yl)thio)-N-(4-phenylthiophen-2-yl)acetamide]"
8,3100,"COc1cccc2nc(NC(=O)CSc3nc4nccnc4c(=O)n3CCc3ccccc3)sc12 [Example Compound 56, N-(7-Methoxybenzo[d]thiazol-2-yl)-2-((4-oxo-3-phenethyl-3,4-dihydropteridin-2-yl)thio)acetamide]"
9,5900,"O=C(CSc1nc2nccnc2c(=O)n1CCc1ccccc1)NC1CCC1 [Example Compound 60, N-Cyclobutyl-2-((4-oxo-3-phenethyl-3,4-dihydropteridin-2-yl)thio)acetamide]"
10,3500,"O=C(CSc1nc2nccnc2c(=O)n1CCc1ccccc1)Nc1nc(C(=O)N2CCOCC2)cs1 [Example Compound 25, N-(4-(Morpholine-4-carbonyl)thiazol-2-yl)-2-((4-oxo-3-phenethyl-3,4-dihydropteridin-2-yl)thio)acetamide]"
11,200,"CS(=O)(=O)N(c1cccc(-c2csc(NC(=O)CSc3nc4nccnc4c(=O)n3CCc3ccccc3)n2)c1)S(C)(=O)=O [Example Compound 55, N-(4-(3-(N-(Methylsulfonyl)methylsulfonamido)phenyl)thiazol-2-yl)-2-((4-oxo-3-phenethyl-3,4-dihydropteridin-2-yl)thio)acetamide]"
12,1500,"O=C(CSc1nc2nccnc2c(=O)n1CCc1cccc(C(F)(F)F)c1)Nc1nccs1 [Example Compound 9, 2-((4-Oxo-3-(3-(trifluoromethyl)phenethyl)-3,4-dihydropteridin-2-yl)thio)-N-(thiazol-2-yl)acetamide]"
13,2000,"O=C(CSc1nc2nccnc2c(=O)n1CCc1ccccc1)Nc1ncccn1 [Example Compound 20, 2-((4-Oxo-3-phenethyl-3,4-dihydropteridin-2-yl)thio)-N-(pyrimidin-2-yl)acetamide]"
